Drawing on PubChem BioAssay (NCI), this text covers TGI for ten compounds.

Some test systems named below: SN12K1 renal; P388 leukemia; DMS 114 small cell lung; DLD-1 colon; XF 498 CNS.
What all share (assay): NCI tumour cell line growth inhibition, 48 h

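96-well plates; 48 h exposure; 5 concentrations. Endpoints by linear interpolation between flanking doses. Not reached: highest tested concentration assigned. Definition used: TGI = concentration required for complete inhibition of growth.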

For the compound `CCCCCCCCCCCCCCCCSCC(COC)COP(=O)([O-])OCC[N+](C)(C)C` (configuration not stated), the TGI with SN12K1 renal was found to be 24.2 µM; with P388 leukemia, 5.26 µM; in the assay on DMS 114 small cell lung, 20.8 µM; in the assay on DLD-1 colon it was 11.2 µM; in the assay on XF 498 CNS, 19.8 µM.
The corresponding values for `C=C1C[C@@H](O)C[C@@]2(C)C[C@@H]3OC(=O)C(=C)[C@@H]3C[C@H]12` are 35.7 µM, 8.87 µM, 23.5 µM, more than 36.6 µM and 4.71 µM.
For the compound `C=C1C(=O)OC2(C)C3CCC(C3)C12` (configuration not stated), the results for the TGI with DMS 114 small cell lung, in the assay with DLD-1 colon and in the assay with XF 498 CNS were more than 100 µM, more than 100 µM and 97.9 µM, respectively.
For the compound `Cc1c2c(cc3c1[nH]c1ccccc13)C=NCC2`, the TGI is 14.4 µM with SN12K1 renal; 17.6 µM with P388 leukemia; 12.9 µM in the assay on DMS 114 small cell lung; 33.1 µM with DLD-1 colon; 12.6 µM in the assay with XF 498 CNS.
On to `Cc1cc(O)c2c(c1O)C(=O)C13C(=C2O)C(=O)C2C(O)C1C1C(O)C3C(=O)C3=C(O)c4c(O)cc(C)c(O)c4C(=O)C321` (configuration not stated), for which the values for the TGI in the assay on SN12K1 renal and in the assay on XF 498 CNS were 0.848 µM and 0.504 µM, respectively.
For the compound `O=C(CC/C=C(/CS(=O)(=O)c1ccccc1)S(=O)(=O)c1ccccc1)c1ccccc1`, the TGI in the assay on DMS 114 small cell lung is 83.4 µM; in the assay on DLD-1 colon, more than 100 µM; with XF 498 CNS, more than 100 µM.
Regarding `O=C(NCCCCCCNC(=O)n1cc(F)c(=O)[nH]c1=O)NCCCOCCOCCCNC(=O)C(O)C(O)C(O)C(O)CO` (configuration not stated), the TGI in the assay on SN12K1 renal, in the assay on P388 leukemia, in the assay with DMS 114 small cell lung, in the assay with DLD-1 colon and in the assay with XF 498 CNS was more than 2.5 µM each time.
Consider `Nc1nc2c(c(=O)[nH]1)N(C=O)C(CNc1ccc(C(=O)N[C@@H](CCC(=O)O)C(=O)O)cc1)CN2` (some centres not stated), for which the TGI in the assay with SN12K1 renal, in the assay with P388 leukemia, in the assay on DMS 114 small cell lung and in the assay with DLD-1 colon was more than 125 µM each time.
Consider `CCN(CC)CCCOC(=O)/C=C/c1c(C)[nH]c(=O)[nH]c1=O`, for which the TGI with SN12K1 renal, in the assay on P388 leukemia, with DMS 114 small cell lung, with DLD-1 colon and in the assay on XF 498 CNS was more than 625 µM throughout.
With `CC(=O)OCC1OC(n2cc(F)c(=O)[nH]c2=O)C(N)C(OC(C)=O)C1OC(C)=O` (configuration not stated), the TGI in the assay on SN12K1 renal, in the assay on P388 leukemia, with DMS 114 small cell lung, with DLD-1 colon and in the assay on XF 498 CNS was more than 100 µM in each case.
